Measured values: patent US11498903B2 (BRISTOL-MYERS SQUIBB COMPANY, priority 2017, dated 2022)
pEC50: −log10 of the molar value. Where two headings read alike, the source gives them in different places.

Biological target: T1, human APJ receptor (Homo sapiens, UniProt P35414)
T1 construct: expressed in transfected cells
T1 sequence (P35414 1-380): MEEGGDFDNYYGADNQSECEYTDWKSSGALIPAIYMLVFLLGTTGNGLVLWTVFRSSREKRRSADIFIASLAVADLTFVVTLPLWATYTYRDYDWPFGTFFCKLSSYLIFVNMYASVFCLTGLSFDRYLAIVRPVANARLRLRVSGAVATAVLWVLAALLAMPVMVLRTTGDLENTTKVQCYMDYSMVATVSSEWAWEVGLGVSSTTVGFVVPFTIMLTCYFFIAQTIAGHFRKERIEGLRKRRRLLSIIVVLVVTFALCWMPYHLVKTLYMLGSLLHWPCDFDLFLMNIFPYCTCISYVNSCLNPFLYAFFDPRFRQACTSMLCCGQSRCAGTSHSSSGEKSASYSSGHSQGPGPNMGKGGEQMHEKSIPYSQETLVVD
Assay: Intracellular cAMP accumulation assay (APJ hcAMP, HTRF)
Assay type: cell-based
Details: HEK293 cells stably expressing human APJ receptor
Procedure, shortened: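 Inhibition of 2 μM forskolin-driven cAMP ([…] present) measured by HTRF in 5,000 HEK293 cells/well stably expressing human APJ, 30 min, room temperature. EC50 came from a variable-slope sigmoidal fit; Ymax was relative to (Pyr1)apelin-13 set at 100%.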

[1] = Table 1, inhibition of forskolin-mediated cAMP production, read-out: APJ hcAMP EC50
[2] = Table 2, read-out: APJ cAMP Human EC50

| SMILES | pEC50 [1] | pEC50 [2] |
| --- | --- | --- |
| CCC[C@@H](NC(=O)c1ccc(-c2cc(Cl)ccc2-c2nc3cc(OC)ccc3[nH]2)c(-c2nc(=O)o[nH]2)c1)c1ccccc1 [Example 8, (R)-5′-chloro-2′-(5-methoxy-1H-benzo[d]imidazol-2-yl)-2-(5-oxo-2,5-dihydro-1,2,4-oxadiazol-3-yl)-N-(1-phenylbutyl)-[1,1′-biphenyl]-4-carboxamide] | 7.00 to 8.00 | 7.00 to 8.00 |
| CCC[C@@H](NC(=O)c1ccc(-c2cc(Cl)ccc2-c2nc3ccccc3[nH]2)c(-c2n[nH]c(=O)o2)c1)c1ccccc1 [Example 9] | 7.00 to 8.00 | 7.00 to 8.00 |
| CCC[C@@H](NC(=O)c1ccc(-c2cc(Cl)ccc2-c2nc3cc(OC)ccc3[nH]2)c(-c2nc(=S)o[nH]2)c1)c1ccccc1 [Example 10, (R)-5′-chloro-2′-(5-methoxy-1H-benzo[d]imidazol-2-yl)-N-(1-phenylbutyl)-2-(5-thioxo-2,5-dihydro-1,2,4-oxadiazol-3-yl)-[1,1′-biphenyl]-4-carboxamide] | 6.30 to 7.00 | 6.30 to 7.00 |
| CCC[C@@H](NC(=O)c1cc(C(=O)O)c(-c2cc(Cl)ccc2-c2nc3ccccc3[nH]2)cc1C)c1ccccc1 [Example 11, (R)-2′-(1H-benzo[d]imidazol-2-yl)-5′-chloro-5-methyl-4-((1-phenylbutyl)carbamoyl)-[1,1′-biphenyl]-2-carboxylic acid] | > 8.00 | > 8.00 |
| COC[C@@H](NC(=O)c1ccc(-c2cc(Cl)ccc2-c2nc3cc(OC)ccc3[nH]2)c(C(=O)O)c1)c1ccccc1 [Example 12, 5′-chloro-4-{[(1S)-2-methoxy-1-phenylethyl]carbamoyl}-2′-(5-methoxy-1H-1,3-benzodiazol-2-yl)-[1,1′ biphenyl]-2-carboxylic acid] | > 8.00 | > 8.00 |
| CCC[C@@H](NC(=O)c1ccc(-c2cc(Cl)ccc2-c2nc3cc(Br)ccc3[nH]2)c(C(=O)O)c1)c1ccccc1 [Example 13, 2′-(5-bromo-1H-1,3-benzodiazol-2-yl)-5′-chloro-4-{[(1R)-1-phenylbutyl]carbamoyl}-[1,1′-biphenyl]-2-carboxylic acid] | > 8.00 | > 8.00 |
| CCC[C@@H](NC(=O)c1ccc(-c2cc(Cl)ccc2-c2nc3cc(C)ccc3[nH]2)c(C(=O)O)c1)c1ccccc1 [Example 14, 5′-chloro-2′-(5-methyl-1H-1,3-benzodiazol-2-yl)-4-{[(1R)-1-phenylbutyl]carbamoyl}-[1,1′-biphenyl]-2-carboxylic acid] | > 8.00 | > 8.00 |
| CCC[C@@H](NC(=O)c1ccc(-c2cc(Cl)ccc2-c2nc3cc(C4CC4)ccc3[nH]2)c(C(=O)O)c1)c1ccccc1 [Example 15, 5′-chloro-2′-(5-cyclopropyl-1H-1,3-benzodiazol-2-yl)-4-{[(1R)-1-phenylbutyl]carbamoyl}-[1,1′-biphenyl]-2-carboxylic acid] | > 8.00 | > 8.00 |
| CCC[C@@H](NC(=O)c1ccc(-c2cc(Cl)ccc2-c2nc3cc(CC(F)(F)F)ccc3[nH]2)c(C(=O)O)c1)c1ccccc1 [Example 16, 5′-chloro-4-{[(1R)-1-phenylbutyl]carbamoyl}-2′-[5-(2,2,2-trifluoroethyl)-1H-1,3-benzodiazol-2-yl]-[1,1′-biphenyl]-2-carboxylic acid] | > 8.00 | > 8.00 |
| CCC[C@@H](NC(=O)c1ccc(-c2cc(Cl)ccc2-c2nc3c(F)cccc3[nH]2)c(C(=O)O)c1)c1ccccc1 [Example 17, 5′-chloro-2′-(4-fluoro-1H-1,3-benzodiazol-2-yl)-4-{[(1R)-1-phenylbutyl]carbamoyl}-[1,1′-biphenyl]-2-carboxylic acid] | > 8.00 | > 8.00 |
| CCC[C@@H](NC(=O)c1ccc(-c2cc(Cl)ccc2-c2nc3cc(C(F)(F)F)ccc3[nH]2)c(C(=O)O)c1)c1ccccc1 [Example 18, 5′-chloro-4-{[(1R)-1-phenylbutyl]carbamoyl}-2′-[5-(trifluoromethyl)-1H-1,3-benzodiazol-2-yl]-[1,1′-biphenyl]-2-carboxylic acid] | > 8.00 | > 8.00 |
| CCC[C@@H](NC(=O)c1ccc(-c2cc(Cl)ccc2-c2nc3cc(C(C)(C)C)ccc3[nH]2)c(C(=O)O)c1)c1ccccc1 [Example 19, 2′-(5-tert-butyl-1H-1,3-benzodiazol-2-yl)-5′-chloro-4-{[(1R)-1-phenylbutyl]carbamoyl}-[1,1′-biphenyl]-2-carboxylic acid] | > 8.00 | > 8.00 |
| CCC[C@@H](NC(=O)c1ccc(-c2cc(Cl)ccc2-c2nc3c(O)cccc3[nH]2)c(C(=O)O)c1)c1ccccc1 [Example 20, 5′-chloro-2′-(4-hydroxy-1H-1,3-benzodiazol-2-yl)-4-{[(1R)-1-phenylbutyl]carbamoyl}-[1,1′-biphenyl]-2-carboxylic acid] | > 8.00 | > 8.00 |
| CCC[C@@H](NC(=O)c1ccc(-c2cc(Cl)ccc2-c2nc3cc(C(=O)OC)ccc3[nH]2)c(C(=O)O)c1)c1ccccc1 [Example 21, 5′-chloro-2′-[5-(methoxycarbonyl)-1H-1,3-benzodiazol-2-yl]-4-{[(1R)-1-phenylbutyl]carbamoyl}-[1,1′-biphenyl]-2-carboxylic acid] | > 8.00 | > 8.00 |
| CCC[C@@H](NC(=O)c1ccc(-c2cc(Cl)ccc2-c2nc3cc(OC(F)(F)F)ccc3[nH]2)c(C(=O)O)c1)c1ccccc1 [Example 22, 5′-chloro-4-{[(1R)-1-phenylbutyl]carbamoyl}-2′-[5-(trifluoromethoxy)-1H-1,3-benzodiazol-2-yl]-[1,1′-biphenyl]-2-carboxylic acid] | 7.00 to 8.00 | 7.00 to 8.00 |
| CCC[C@@H](NC(=O)c1ccc(-c2cc(Cl)ccc2-c2nc3ncc(C)cc3[nH]2)c(C(=O)O)c1)c1ccccc1 [Example 23, 5′-chloro-2′-{6-methyl-1H-imidazo[4,5-b]pyridin-2-yl}-4-{[(1R)-1-phenylbutyl]carbamoyl}-[1,1′-biphenyl]-2-carboxylic acid] | 7.00 to 8.00 | 7.00 to 8.00 |
| CCC[C@@H](NC(=O)c1ccc(-c2cc(Cl)ccc2-c2nc3ccncc3[nH]2)c(C(=O)O)c1)c1ccccc1 [Example 24, 5′-chloro-2′-{1H-imidazo[4,5-c]pyridin-2-yl}-4-{[(1R)-1-phenylbutyl]carbamoyl}-[1,1′-biphenyl]-2-carboxylic acid] | 7.00 to 8.00 | 7.00 to 8.00 |
| CCC[C@@H](NC(=O)c1ccc(-c2cc(Cl)ccc2-c2nc3c(ccc4ccccc43)[nH]2)c(C(=O)O)c1)c1ccccc1 [Example 25, 5′-chloro-2′-{3H-naphtho[1,2-d]imidazol-2-yl}-4-{[(1R)-1-phenylbutyl]carbamoyl}-[1,1′-biphenyl]-2-carboxylic acid] | 7.00 to 8.00 | 7.00 to 8.00 |
| CCC[C@@H](NC(=O)c1ccc(-c2cc(Cl)ccc2-c2nc3cc4c(cc3[nH]2)OCO4)c(C(=O)O)c1)c1ccccc1 [Example 26, 5′-chloro-2′-{4,6-dioxa-10,12-diazatricyclo[7.3.0.0^3,^7]dodeca-1(9),2,7,10-tetraen-11-yl}-4-{[(1R)-1-phenylbutyl]carbamoyl}-[1,1′-biphenyl]-2-carboxylic acid] | 7.00 to 8.00 | 7.00 to 8.00 |
| CCC[C@@H](NC(=O)c1ccc(-c2cc(Cl)ccc2-c2nc3cc4ccccc4cc3[nH]2)c(C(=O)O)c1)c1ccccc1 [Example 27, 5′-chloro-2′-{1H-naphtho[2,3-d]imidazol-2-yl}-4-{[(1R)-1-phenylbutyl]carbamoyl}-[1,1′-biphenyl]-2-carboxylic acid] | 7.00 to 8.00 | 7.00 to 8.00 |
